Results from ChEMBL document CHEMBL1156373, “Sesquiterpenes from the Formosan stolonifer Tubipora musica” (2001).
Converted amounts (≈) assume the structure as drawn.

What follows are compounds tested on P388 (assay: Cytotoxicity against mouse P388 cells). Settings: read-out: ED50 (the source's name).
Format: functional
`CC(=O)OCC1=CC(C)=C[C@@]2(C)C[C@]3(C[C@H]12)C(=O)O[C@H]1O[C@H]13` [SPIROTUBIPOLIDE] gave an EC50 of 3.24 µg/mL (≈ 10.6 µM).
In the case of `CC1=CC=C[C@@]2(C)C[C@@H]3OC(=O)C(C)=C3C[C@@H]12` [TUBIPOLIDE B], the EC50 is reported as 3.69 µg/mL (≈ 16 µM).
`CC(=O)OCC1=CC=C[C@@]2(C)C=C3OC(=O)C(C)=C3C[C@@H]12` [TUBIPOLIDE G] gave an EC50 of 4.01 µg/mL (≈ 14 µM).
